Results taken from ChEMBL document CHEMBL5465560, “Selectivity Literature for EUbOPEN Chemogenomic Library” (2024).

What was measured:
[1] = target: T1, Serine/threonine-protein kinase TAO3 (Homo sapiens) (UniProt Q9H2K8); experiment: Selectivity interaction (KinomeScan (DiscoverX)) EUB0000092b TAOK3; conditions: at 10 µM
T1 sequence (whole entry): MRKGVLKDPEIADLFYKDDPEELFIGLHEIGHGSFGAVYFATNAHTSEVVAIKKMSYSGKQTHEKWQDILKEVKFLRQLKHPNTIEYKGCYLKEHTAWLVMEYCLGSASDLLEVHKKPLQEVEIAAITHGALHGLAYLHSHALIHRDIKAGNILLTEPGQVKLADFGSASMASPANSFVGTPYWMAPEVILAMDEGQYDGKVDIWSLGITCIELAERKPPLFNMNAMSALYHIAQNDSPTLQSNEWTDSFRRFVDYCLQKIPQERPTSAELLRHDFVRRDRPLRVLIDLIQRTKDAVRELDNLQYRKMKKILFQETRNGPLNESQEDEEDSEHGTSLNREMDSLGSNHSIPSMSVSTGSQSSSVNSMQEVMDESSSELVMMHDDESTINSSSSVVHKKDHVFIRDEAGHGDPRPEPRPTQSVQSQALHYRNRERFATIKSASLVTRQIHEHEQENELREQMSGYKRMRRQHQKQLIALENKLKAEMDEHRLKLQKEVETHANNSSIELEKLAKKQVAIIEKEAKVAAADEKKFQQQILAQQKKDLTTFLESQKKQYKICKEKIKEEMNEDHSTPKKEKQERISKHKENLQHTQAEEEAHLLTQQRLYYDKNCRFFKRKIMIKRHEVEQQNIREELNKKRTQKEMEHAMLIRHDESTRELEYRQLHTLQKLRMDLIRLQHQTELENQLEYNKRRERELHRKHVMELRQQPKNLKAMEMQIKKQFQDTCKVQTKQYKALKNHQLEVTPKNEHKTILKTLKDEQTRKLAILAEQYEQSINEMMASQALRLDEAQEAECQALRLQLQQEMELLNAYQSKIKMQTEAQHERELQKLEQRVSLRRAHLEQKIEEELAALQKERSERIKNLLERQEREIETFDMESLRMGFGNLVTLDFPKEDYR

[2] = target: T2, Protein kinase C zeta type (Homo sapiens) (UniProt Q05513); experiment: Selectivity interaction (ProQinase) EUB0000171b PRKCZ; conditions: at 1 µM
T2 sequence (whole entry): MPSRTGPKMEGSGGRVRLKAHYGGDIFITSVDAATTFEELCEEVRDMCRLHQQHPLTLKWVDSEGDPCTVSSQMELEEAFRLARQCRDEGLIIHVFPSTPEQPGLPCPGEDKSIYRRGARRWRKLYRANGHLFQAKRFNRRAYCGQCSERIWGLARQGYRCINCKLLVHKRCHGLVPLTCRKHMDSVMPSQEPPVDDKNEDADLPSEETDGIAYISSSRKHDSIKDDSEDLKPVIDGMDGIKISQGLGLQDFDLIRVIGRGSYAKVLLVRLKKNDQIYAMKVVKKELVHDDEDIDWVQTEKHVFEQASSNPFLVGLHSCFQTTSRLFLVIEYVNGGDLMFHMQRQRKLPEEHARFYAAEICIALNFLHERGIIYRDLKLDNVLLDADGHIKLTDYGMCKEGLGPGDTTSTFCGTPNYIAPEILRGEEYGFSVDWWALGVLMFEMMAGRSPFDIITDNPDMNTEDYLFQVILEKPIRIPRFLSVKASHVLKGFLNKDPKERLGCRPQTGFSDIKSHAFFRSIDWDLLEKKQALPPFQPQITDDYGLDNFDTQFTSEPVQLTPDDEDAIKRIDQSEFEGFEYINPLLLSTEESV

[3] = target: Angiopoietin-1 receptor (Homo sapiens) (UniProt Q02763); experiment: Selectivity interaction (ProQinase) EUB0000171b TEK; conditions: at 5 µM
[4] = target: Serine/threonine-protein kinase PAK 6 (Homo sapiens) (UniProt Q9NQU5); experiment: Selectivity interaction (SelectScreen profiling (Invitrogen)) EUB0000607a PAK6; conditions: at 2 µM
[5] = target: Serine/threonine-protein kinase pim-3 (Homo sapiens) (UniProt Q86V86); experiment: Selectivity interaction (KinomeScan (DiscoverX)) EUB0000695a PIM3; conditions: at 100 nM
[6] = target: Receptor tyrosine-protein kinase erbB-3 (Homo sapiens) (UniProt P21860); experiment: Selectivity interaction (KinomeScan (DiscoverX)) EUB0000595a ERBB3; conditions: at 10 µM
[7] = target: T3, Serine/threonine-protein kinase LATS2 (Homo sapiens) (UniProt Q9NRM7); experiment: Selectivity interaction (KinomeScan (DiscoverX)) EUB0000045b LATS2
T3 sequence (whole entry): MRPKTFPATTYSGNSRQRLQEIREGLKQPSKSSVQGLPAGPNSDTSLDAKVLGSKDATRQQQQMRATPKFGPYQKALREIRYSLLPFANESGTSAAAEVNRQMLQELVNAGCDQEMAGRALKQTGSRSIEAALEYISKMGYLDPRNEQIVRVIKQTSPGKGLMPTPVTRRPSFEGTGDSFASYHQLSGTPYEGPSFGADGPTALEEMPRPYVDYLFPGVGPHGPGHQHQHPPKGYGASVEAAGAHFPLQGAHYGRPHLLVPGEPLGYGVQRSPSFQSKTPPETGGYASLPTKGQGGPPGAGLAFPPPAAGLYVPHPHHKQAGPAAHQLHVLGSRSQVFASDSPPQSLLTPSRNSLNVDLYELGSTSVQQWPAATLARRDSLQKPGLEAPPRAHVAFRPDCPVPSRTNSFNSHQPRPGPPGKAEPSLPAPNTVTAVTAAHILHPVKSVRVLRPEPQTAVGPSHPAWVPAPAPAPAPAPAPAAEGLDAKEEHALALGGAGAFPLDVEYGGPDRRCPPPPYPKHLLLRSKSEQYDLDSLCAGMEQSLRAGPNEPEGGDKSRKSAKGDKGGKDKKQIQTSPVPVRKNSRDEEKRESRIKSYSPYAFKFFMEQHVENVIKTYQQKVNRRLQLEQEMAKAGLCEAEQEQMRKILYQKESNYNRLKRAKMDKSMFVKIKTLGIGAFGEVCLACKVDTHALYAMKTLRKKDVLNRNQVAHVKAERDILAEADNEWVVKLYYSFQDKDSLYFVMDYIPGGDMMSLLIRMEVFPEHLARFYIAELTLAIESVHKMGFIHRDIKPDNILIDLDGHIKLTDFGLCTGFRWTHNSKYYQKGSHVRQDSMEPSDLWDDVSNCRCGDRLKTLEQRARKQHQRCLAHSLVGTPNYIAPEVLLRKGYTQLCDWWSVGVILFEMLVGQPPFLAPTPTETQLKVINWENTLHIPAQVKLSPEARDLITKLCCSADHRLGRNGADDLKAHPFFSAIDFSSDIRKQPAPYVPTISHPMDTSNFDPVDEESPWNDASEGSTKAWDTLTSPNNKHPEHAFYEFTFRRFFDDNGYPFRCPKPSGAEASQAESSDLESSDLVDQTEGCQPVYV

Serine/threonine-protein kinase PAK 6 (Homo sapiens), sequence (Q9NQU5 whole entry, looked up): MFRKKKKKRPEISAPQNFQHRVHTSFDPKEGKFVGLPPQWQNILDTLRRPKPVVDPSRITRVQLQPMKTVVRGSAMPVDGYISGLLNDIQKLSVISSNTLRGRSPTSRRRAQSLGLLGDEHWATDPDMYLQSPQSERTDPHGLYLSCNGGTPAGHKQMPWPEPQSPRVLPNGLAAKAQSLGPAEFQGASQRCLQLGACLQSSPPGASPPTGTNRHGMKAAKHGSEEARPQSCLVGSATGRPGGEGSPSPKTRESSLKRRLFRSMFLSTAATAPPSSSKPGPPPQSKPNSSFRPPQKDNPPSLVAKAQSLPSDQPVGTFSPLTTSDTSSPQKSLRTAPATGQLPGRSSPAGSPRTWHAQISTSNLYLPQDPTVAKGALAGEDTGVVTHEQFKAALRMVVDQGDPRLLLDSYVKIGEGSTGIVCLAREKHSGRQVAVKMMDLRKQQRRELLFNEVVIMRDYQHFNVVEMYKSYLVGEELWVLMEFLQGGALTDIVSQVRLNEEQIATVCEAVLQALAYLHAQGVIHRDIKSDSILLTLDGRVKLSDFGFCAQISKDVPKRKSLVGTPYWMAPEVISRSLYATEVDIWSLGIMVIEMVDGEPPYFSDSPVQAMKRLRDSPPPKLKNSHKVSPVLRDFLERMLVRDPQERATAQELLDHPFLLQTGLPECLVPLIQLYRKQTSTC
Angiopoietin-1 receptor (Homo sapiens), sequence (Q02763 whole entry): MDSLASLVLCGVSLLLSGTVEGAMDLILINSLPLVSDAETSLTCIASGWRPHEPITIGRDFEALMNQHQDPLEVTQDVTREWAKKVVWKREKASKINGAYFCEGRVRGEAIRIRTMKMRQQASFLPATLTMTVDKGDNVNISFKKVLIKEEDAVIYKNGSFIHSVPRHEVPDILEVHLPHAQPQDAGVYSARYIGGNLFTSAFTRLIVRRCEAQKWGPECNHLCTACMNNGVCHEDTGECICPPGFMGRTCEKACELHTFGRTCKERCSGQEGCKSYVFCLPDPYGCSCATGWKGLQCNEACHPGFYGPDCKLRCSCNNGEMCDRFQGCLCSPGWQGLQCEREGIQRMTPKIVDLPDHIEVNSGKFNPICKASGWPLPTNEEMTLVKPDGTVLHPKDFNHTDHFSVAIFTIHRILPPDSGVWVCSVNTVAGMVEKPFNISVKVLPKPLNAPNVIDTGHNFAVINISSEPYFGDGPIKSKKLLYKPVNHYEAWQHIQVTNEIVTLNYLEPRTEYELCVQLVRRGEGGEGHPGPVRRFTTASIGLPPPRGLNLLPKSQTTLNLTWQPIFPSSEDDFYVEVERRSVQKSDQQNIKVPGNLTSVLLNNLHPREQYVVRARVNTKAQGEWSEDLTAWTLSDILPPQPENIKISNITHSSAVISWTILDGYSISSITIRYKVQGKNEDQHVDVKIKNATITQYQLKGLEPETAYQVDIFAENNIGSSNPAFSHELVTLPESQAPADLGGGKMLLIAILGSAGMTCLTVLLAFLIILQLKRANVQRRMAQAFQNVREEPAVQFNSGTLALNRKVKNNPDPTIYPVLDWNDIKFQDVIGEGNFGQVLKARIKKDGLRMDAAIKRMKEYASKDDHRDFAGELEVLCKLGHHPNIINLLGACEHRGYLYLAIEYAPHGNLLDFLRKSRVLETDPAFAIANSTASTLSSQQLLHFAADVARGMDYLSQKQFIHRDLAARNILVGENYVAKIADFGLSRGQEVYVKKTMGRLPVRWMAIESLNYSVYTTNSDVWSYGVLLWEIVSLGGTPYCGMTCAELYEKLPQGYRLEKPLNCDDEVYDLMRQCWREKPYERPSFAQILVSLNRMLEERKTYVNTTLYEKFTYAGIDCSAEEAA
Receptor tyrosine-protein kinase erbB-3 (Homo sapiens), sequence (P21860 whole entry): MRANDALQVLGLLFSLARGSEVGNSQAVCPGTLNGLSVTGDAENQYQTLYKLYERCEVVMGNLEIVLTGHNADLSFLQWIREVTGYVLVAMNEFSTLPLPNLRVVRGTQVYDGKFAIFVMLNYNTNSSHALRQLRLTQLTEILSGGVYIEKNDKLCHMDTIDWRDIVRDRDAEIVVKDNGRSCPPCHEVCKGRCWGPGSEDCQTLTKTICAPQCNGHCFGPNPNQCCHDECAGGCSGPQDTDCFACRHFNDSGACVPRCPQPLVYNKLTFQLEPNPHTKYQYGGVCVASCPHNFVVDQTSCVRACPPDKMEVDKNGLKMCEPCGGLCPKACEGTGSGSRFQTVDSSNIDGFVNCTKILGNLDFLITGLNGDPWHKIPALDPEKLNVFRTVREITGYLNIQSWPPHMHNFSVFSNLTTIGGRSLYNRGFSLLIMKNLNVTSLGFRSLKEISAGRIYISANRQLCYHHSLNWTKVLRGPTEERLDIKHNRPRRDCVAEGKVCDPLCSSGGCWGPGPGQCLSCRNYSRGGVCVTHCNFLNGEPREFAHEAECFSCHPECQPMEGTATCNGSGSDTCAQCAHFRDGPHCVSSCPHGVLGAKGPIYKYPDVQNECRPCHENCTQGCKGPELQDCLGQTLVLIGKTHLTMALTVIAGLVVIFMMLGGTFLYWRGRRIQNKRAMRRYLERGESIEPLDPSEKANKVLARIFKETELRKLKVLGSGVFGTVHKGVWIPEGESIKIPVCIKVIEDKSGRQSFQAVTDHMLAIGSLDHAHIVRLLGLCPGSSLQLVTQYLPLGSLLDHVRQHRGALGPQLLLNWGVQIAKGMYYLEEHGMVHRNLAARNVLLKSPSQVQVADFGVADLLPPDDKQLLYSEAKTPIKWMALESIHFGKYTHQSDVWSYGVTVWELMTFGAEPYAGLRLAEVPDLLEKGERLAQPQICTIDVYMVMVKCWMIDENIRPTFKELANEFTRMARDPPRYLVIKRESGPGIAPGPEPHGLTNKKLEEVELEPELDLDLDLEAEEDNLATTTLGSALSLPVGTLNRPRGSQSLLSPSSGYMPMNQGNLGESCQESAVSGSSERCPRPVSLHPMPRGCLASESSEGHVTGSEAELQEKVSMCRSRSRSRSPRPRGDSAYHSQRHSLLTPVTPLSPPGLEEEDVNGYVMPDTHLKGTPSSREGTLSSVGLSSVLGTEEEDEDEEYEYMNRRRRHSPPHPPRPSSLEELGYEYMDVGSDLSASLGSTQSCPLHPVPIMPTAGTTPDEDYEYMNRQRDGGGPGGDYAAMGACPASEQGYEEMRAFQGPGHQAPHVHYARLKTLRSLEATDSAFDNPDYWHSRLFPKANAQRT

CCC(=O)N1CCN(c2ccc(-n3c(=O)ccc4cnc5ccc(-c6cnc7ccccc7c6)cc5c43)cc2C(F)(F)F)CC1
% of control [1]: 76%

C=CC(=O)Nc1cccc(C(=O)Nc2ccc(Nc3cc(-c4[nH]c(SC)nc4C)ccn3)cc2)c1
% of control [2]: 90%
% of control [3]: 96%

CNC(=O)Nc1ccc(-c2nc(N3CC4CCC(C3)O4)c3cnn(C4CCC5(CC4)OCCO5)c3n2)cc1
% of inhibition [4]: 9%

Cc1cc(F)c(C(=O)Nc2cccc(-c3nncn3C(C)C)n2)cc1-n1cnc(C2CC2)c1
% of control [5]: 92%

COCC(=O)NC/C=C/c1ccc2ncnc(Nc3ccc(Oc4ccc(C)nc4)c(C)c3)c2c1 [CP-724714]
% of control [6]: 20%

C=CC(=O)Nc1cc(-n2c(=O)ccc3cnc4ccc(-c5ccc(NS(C)(=O)=O)cc5)cc4c32)ccc1C
% of control ([7]; at 1 µM): 100%
% of control ([7]; at 10 µM): 81%
